Laboratory results from patent US12648928B2, “Intervention strategy for prevention or treatment of diabetes mellitus, autoimmune disease, inflammatory disease or cardiovascular disease” (ACADEMISCH MEDISCH CENTRUM, priority 2020, dated 2026).
Entries after “also recorded” stand apart in the source; their conditions may differ.

Tests used:
murine CD4+ T cells = test: In vitro CD4+ T cell activation assay (anti-CD3/anti-CD28); type: cell-based
Procedure: Primary CD4+ T cells were freshly isolated by negative selection from spleens of C57/B16 mice (N=3 per experiment). Briefly, spleens were smashed in a culture dish and passed twice through a strainer (70 μm and 40 μm, respectively) to obtain a single-cell suspension.
Using the negative selection (CD4+ T Cell Isolation kit, Miltenyi Biotec, #130-10-454). Non-CD4 T cells were depleted by retaining them in LS magnetizing column (Miltenyi Biotec).
Isolated CD4 T cells were cultured in 96-well plates (1×10^5 per well) in RPMI1640 medium supplemented with 10% fetal bovine serum, 100 U/ml penicillin, 100 μg/ml streptomycin, 2 mM L-glutamine. Treatment with the metabolites 6-BT (1/10 μM), LysoPC(20:0) (10/50 μM) or MA-GPC (10/50/100 μM) and activation with 2.5 μg/ml soluble anti-CD3 (145-2C11, eBioscience) and 1 μg/ml soluble anti-CD28 (37.51, eBioscience) antibodies started immediately after seeding in 200 i/well complete RPMI1640 media for a 24-hour period, at the end of which supernatant was harvested and stored at −80° C.
Specific ELISAs (R&D Systems) were utilized to measure the concentration of TNFα, IFNβ, and IFNγ in cell supernatant of murine monocytes, macrophages ad T cells, respectively, according to the manufacturer's instructions. The concentration of insulin after 24-hour treatment with metabolites or after GSIS were determined using Rat insulin ELISA (Mercodia) according to the manufacturer's instructions. GSIS was calculated by subtracting the concentration of insulin at 1 mM glucose to the insulin rate at 22 mM glucose.
Particularly in the context of autoimmune diabetes, the activity of T cells is driving disease onset and progression. […] To mimic antigen presentation, murine CD4 T cells (isolated from spleens; Uchimura T., The Innate Immune Sensor NLRC3 Acts as a Rheostat that Fine-Tunes T Cell Responses in Infection and Autoimmunity. Immunity 2019) were activated by monoclonal antibodies against CD3 and CD28 (2.5 and 1 μg/ml, respectively).

NF-kB pathway [1] = test: Phosphorylated p65 subunit after PMA/ionomycin activation, murine CD4 T cells; type: cell-based; conditions: PMA 50 μg/ml and ionomycin 1 μg/ml, 5-10 minutes after activation (FIG. 18)
Procedure: (§1) Seeking for the molecular mechanism(s) underlying 6-BT actions, 6-BT impact on the activation of the NF-kB pathway, a central pathway in all inflammatory diseases (beyond autoimmunity) was checked first. […] Upon T cell activation with PMA ([…]) and ionomycin (1 μg/ml), 6-BT could inhibit, at very early time-points (5-10 minutes after activation), the NF-kB signaling. This effect was found in both murine and human (Jurkat cells) CD4 T cells.

NF-kB pathway [2] = test: Phosphorylated p65 subunit after PMA/ionomycin activation, Jurkat cells; type: cell-based; conditions: human Jurkat cells; PMA 50 μg/ml and ionomycin 1 μg/ml; 5-10 minutes after activation (FIG. 18)
Procedure: as §1

murine CD4 T cells = test: Seahorse XF mitochondrial metabolism (OCR), murine CD4 T cells; type: cell-based; conditions: 100 uM; murine CD4 T cells (FIG. 22)
Procedure: Finally, it was uncovered that 6-BT also impacts the intracellular metabolism.
OCR=oxygen consumption rate, used as a proxy of cellular utilization of mitochondrial oxidative phosphorylation. OCR was measured using a Seahorse XF Analyzer Uchimura T., The Innate Immune Sensor NLRC3 Acts as a Rheostat that Fine-Tunes T Cell Responses in Infection and Autoimmunity. Immunity 2019; Chou, AIM2 in regulatory T cells restrains autoimmune diseases, Nature 2021.

AhR = biological target: T1, AhR (Homo sapiens, UniProt P35869); test: AhR activation
T1 sequence (P35869 11-848): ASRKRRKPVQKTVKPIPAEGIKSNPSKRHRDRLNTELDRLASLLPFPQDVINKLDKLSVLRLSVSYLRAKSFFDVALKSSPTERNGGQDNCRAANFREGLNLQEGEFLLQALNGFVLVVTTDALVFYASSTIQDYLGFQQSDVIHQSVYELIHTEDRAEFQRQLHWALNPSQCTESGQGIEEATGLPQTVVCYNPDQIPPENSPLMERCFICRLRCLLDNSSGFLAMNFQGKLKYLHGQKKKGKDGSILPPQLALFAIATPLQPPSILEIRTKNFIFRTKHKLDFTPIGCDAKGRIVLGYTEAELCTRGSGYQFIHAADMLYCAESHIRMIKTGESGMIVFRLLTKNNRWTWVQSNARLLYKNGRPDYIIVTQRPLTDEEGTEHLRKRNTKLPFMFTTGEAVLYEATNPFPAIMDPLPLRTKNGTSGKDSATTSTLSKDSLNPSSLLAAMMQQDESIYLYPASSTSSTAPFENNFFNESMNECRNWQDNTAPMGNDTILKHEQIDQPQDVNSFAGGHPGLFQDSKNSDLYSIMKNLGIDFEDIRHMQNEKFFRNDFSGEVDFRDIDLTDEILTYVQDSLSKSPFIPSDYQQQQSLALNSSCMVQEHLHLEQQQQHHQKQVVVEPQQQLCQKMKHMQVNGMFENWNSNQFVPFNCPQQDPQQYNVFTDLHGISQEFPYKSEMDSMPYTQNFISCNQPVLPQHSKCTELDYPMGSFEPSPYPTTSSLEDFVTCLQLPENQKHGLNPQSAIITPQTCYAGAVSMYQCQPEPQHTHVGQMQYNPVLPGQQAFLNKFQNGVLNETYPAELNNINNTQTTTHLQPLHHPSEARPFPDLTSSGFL

N[C@@H](Cc1c[nH]c2cc(Br)ccc12)C(=O)O [6-BT, 6-bromotryptophan]
production of the Th1 cytokine IFNgamma (murine CD4+ T cells; CD4 T cells from spleens, anti-CD3 2.5 μg/ml and anti-CD28 1 μg/ml (FIGS. 16, 20)): significantly reduced; also recorded: exerted inhibitory effect | Th1 responses in CD4 T cells (murine CD4+ T cells; anti-CD3 & anti-CD28 mAbs, 24 hours (FIG. 11)): dampen Th1 responses | NF-kB signaling (phosphorylated p65 subunit) (NF-kB pathway [1]): could inhibit | NF-kB signaling (phosphorylated p65 subunit) (NF-kB pathway [2]): could inhibit | mitochondrial metabolism (OCR) (murine CD4 T cells): promotes the mitochondrial metabolism | activation of AhR (AhR): does not act through activation of AhR
